# Measured values published in patent US10662223B2, “Composition for organ, tissue, or cell transplantation, kit, and transplantation method” (GemVax & KAEL Co., Ltd., priority 2014, dated 2020).
# Entries after “also recorded” stand apart in the source; their conditions may differ.
# Legend:
# [1] = test system: renal IR injury mouse model; assay: Renal IR injury mouse model: blood urea nitrogen (BUN) and creatine; type: in vivo, C57BL/6 mouse; conditions: 24 hours after IR; 1000 nmol/kg 30 minutes before and 12 hours after IR; compared with PBS control group
# Description: (§1) A renal JR injury mouse model was obtained by inducing IR by bilateral clamping renal pedicles for 30 minutes and restoring blood flow after 30 minutes by removing the clamps. Experimental groups were divided into three groups, which are an administered group (PEP 1), a control group (PBS: without PEP 1 administration), and a Sham group (no bilateral clamping). PEP 1 was subcutaneously injected at a concentration of 1000 nmol/kg 30 minutes before and 12 hours after the IR induction.
# (§2) A C57BL/6 mouse (8-week-old; Charles River Laboratories, Wilmington, Mass.) was used to induce renal IR injury. The renal pedicles were clamped with vascular forceps to block blood flow, and ischemia was induced for […] in the renal IR injury model, followed by reperfusion.
# (§3) The peptide PEP 1 was diluted with PBS to a concentration of 1000 nmol/kg, and then intraperitoneally injected twice, 30 minutes before and 12 hours after the IR.
# Blood was taken 24 hours after the JR and the levels of blood urea nitrogen (BUN) and creatine as renal toxicity markers were measured, renal tissue was taken and prepared into paraffin blocks for immunohistochemical and histological studies, and then proteins were extracted to measure cytokine levels. The creatine concentration and BUN were measured using an autoanalyzer (Technicon RA-1000; Bayer, Tarrytown, N.Y.).
# renal tissue = assay: Renal IR injury mouse model: TUNEL staining, renal apoptosis; type: in vivo, C57BL/6 mouse; conditions: 24 hours after IR; 1000 nmol/kg 30 minutes before and 12 hours after IR; compared with PBS control group
# Description: (§4) A renal JR injury mouse model was obtained by inducing IR by bilateral clamping renal pedicles for 30 minutes and restoring blood flow after 30 minutes by removing the clamps. Experimental groups were divided into three groups, which are an administered group (PEP 1), a control group (PBS: without PEP 1 administration), and a Sham group (no bilateral clamping). PEP 1 was subcutaneously injected at a concentration of 1000 nmol/kg 30 minutes before and 12 hours after the IR induction. A C57BL/6 mouse (8-week-old; Charles River Laboratories, Wilmington, Mass.) was used to induce renal IR injury. The renal pedicles were clamped with vascular forceps to block blood flow, and ischemia was induced for […] in the renal IR injury model, followed by reperfusion. The peptide PEP 1 was diluted with PBS to a concentration of 1000 nmol/kg, and then intraperitoneally injected twice, 30 minutes before and 12 hours after the IR. […] Renal apoptosis was evaluated by staining renal tissue with TUNEL stain 24 hours after the IR. Renal paraffin sections were stained with TUNEL using a TUNEL staining kit (Roche Applied Science, Indianapolis, Ind., USA).
# [2] = test system: macrophages and neutrophils in renal tissue; assay: Renal IR injury mouse model: innate immune cell infiltration by immunohistochemistry (F4/80, Gr-1); type: in vivo, C57BL/6 mouse; conditions: 24 hours after IR; 1000 nmol/kg 30 minutes before and 12 hours after IR; compared with PBS control group
# Description: as §4, with “Infiltration of innate immune cells” for “Renal apoptosis”, “staining the” for “staining”, “a macrophage maker (F4/80) and a neutrophil maker (Gr-1) through immunohistochemistry” for “TUNEL stain”, “Specifically, infiltrated macrophages and neutrophils” for “Renal paraffin sections”, “with” for “with TUNEL using”, “macrophage-specific antibody (F4/80, abcam., Cambridge, Mass.) by an immunochemical method performed on paraffin-containing sections.” for “TUNEL staining kit (Roche Applied Science, Indianapolis, Ind., USA).”
# IL-6 = assay: Renal IR injury mouse model: IL-6 level in renal tissue; type: in vivo, C57BL/6 mouse; conditions: 24 hours after IR; 1000 nmol/kg 30 minutes before and 12 hours after IR; compared with PBS control group
# Description: as §1, §2, §3
# (§5) Protein was extracted from renal tissue 24 hours after the IR, and IL-6, MCP-1 and TNF-α levels were measured by a cytometric bead array. Mouse IL-6, MCP-1, TNF-α, and an ELISA kit were purchased from R&D Systems, and the experiment was conducted according to the manufacturer's protocol.
# MCP-1 = assay: Renal IR injury mouse model: MCP-1 level in renal tissue; type: in vivo, C57BL/6 mouse; conditions: 24 hours after IR; 1000 nmol/kg 30 minutes before and 12 hours after IR; compared with PBS control group
# Description: as §1, §2, §3, §5
# TNF-α = assay: Renal IR injury mouse model: TNF-α level in renal tissue; type: in vivo, C57BL/6 mouse; conditions: 24 hours after IR; 1000 nmol/kg 30 minutes before and 12 hours after IR; compared with PBS control group
# Description: as §1, §2, §3, §5
# abdominal skin flap = assay: Flap IR injury rat model: flap survivability; type: in vivo, Sprague-Dawley Rat; conditions: 7 days after IR induction; 10 mg/500 μl intramuscularly 30 minutes before and 1, 2, 3, 4, 5, and 7 days after IR; 7 hours ischemia
# Description: Transplantation of a flap of the rectus abdominis was carried out as follows. An IR injury rat model was obtained by detaching a flap with a size of 5 cm×5 cm from abdominal skin of a white rat (Sprague-Dawley Rat, 180 to 230 g), adding PEP1 or saline to the rat, inducing ischemia through clamping, and restoring blood flow after 7 hours by removing the clamps (refer to FIG. 11).
# Experimental groups were divided into three groups, which are an administered group (PEP 1), a control group (PBS without PEP 1), and a sham group (group in which no IR injury induced). PEP 1 (10 mg/500 μl) or saline (500 Id) was intramuscularly injected 30 minutes before and 1, 2, 3, 4, 5, and 7 days after the IR induction.
# Flap survivability was measured 7 days after the IR induction. The flap survivability was measured through digital image analysis using imageJ program.
# transplanted lung [3] = assay: Rat lung transplantation: H&E staining of alveolar tissue; type: in vivo, Sprague-Dawley rat
# Description: (§6) The experiment was performed using two rats with the same gene, and lung transplantation was carried out by detaching the left lung from a donor rat and placing the donor's lung in the left thoracic cavity from which an original left lung was removed of the recipient rat. To basically prevent rejection, the rats had the same gene. Both the donor rat and recipient rat had weights of 300 to 350 g, and were the Sprague-Dawley species. Following the extraction of a lung from the donor rat, the lung was transplanted to the recipient rat through surgical procedures.
# (§7) During perfusion, mechanical ventilation was continuously performed to allow uniform lung perfusion.
# (§8) (4) Following the perfusion, trachea was ligated while the lung expanded under the endotracheal intubation, a heart-lung block was extracted, and then peripheral structures such as esophagus were removed on a cold petri-dish. The heart-lung block was weighed, and subjected to cold storage in a perfusion solution, which was the same as the lung perfusion solution. Ischemic duration was set three hours.
# (§9) For the experiment, the lung transplant rats were divided into four groups. […]
# transplanted lung [4] = assay: Rat lung transplantation: wet/dry weight ratio (reperfusion edema); type: in vivo, Sprague-Dawley rat; conditions: PERFADEX 50 mL + PEP1 5 mg; lower lobe of transplanted lung
# Description: as §6, §7, §8, §9
# transplanted lung [5] = assay: Rat lung transplantation: analysis of bronchoalveolar lavage fluid (BAL); type: in vivo, Sprague-Dawley rat; conditions: PERFADEX 50 mL + PEP1 5 mg
# Description: as §6, §7, §8, §9
# [6] = PERFADEX 50 mL + PEP1 5 mg as lung preservation solution
sequence,measurement,setting,value
"EARPALLTSRLRFIPK (listed as Homo sapiens) [PEP 1, 16 aa peptide derived from Homo sapiens telomerase, position [611-626]]",blood urea nitrogen (BUN) level,[1],significantly decreased
same,creatine level,[1],significantly decreased
same,TUNEL-positive cells (renal apoptosis),renal tissue,remarkably decreased
same,infiltration of macrophages into renal tissue (F4/80),[2],remarkably decreased; also recorded: inhibited
same,infiltration of neutrophils into renal tissue (Gr-1),[2],remarkably decreased; also recorded: inhibited
same,IL-6 level in renal tissue,IL-6,significantly decreased; also recorded: significantly inhibited
same,MCP-1 level in renal tissue,MCP-1,significantly decreased; also recorded: significantly inhibited
same,TNF-α level in renal tissue,TNF-α,no significant difference
same,flap survivability,abdominal skin flap,58.88%±11.44%
same,"preventing hemorrhage and maintaining the alveolar wall, 5 mg PEP1 rather than 50 mg PEP1","transplanted lung [3]; PEP1 added to PERFADEX 50 mL, 5 mg compared with 50 mg",more effective
same,alveolar wall of transplanted lung (H&E),transplanted lung [3]; [6],did not get harder
same,hemorrhage in transplanted lung (H&E),transplanted lung [3]; [6],rarely occurred
same,reperfusion edema (wet/dry weight ratio) compared with normal saline administered group,transplanted lung [4],significantly (p<0.05) decreased
same,reperfusion edema level among the four groups,transplanted lung [4],lowest level
same,expression of inflammatory cells in BAL among the four groups,transplanted lung [5],lowest expression
